These results are taken from ChEMBL document CHEMBL1135840, “Design, synthesis and pharmacological evaluation of novel pyrazolo[3,4-b]thieno[2,3-d]pyridine acid derivatives: a new class of anti-inflammatory and anti-platelet agents” (Bioorg Med Chem Lett, 2002).

Molecules are shown by their SMILES.

The test system of test [1] is Rattus norvegicus. The test can be described thus: Percent inhibition of cellular migration by the compound at a dose of 100 umol/kg was evaluated. It is filed as functional.
Another test is filed under the species Cavia porcellus. As to the kind of experiment: In vitro effect of compound on leukotriene-D4 LTD4 (100 nM) induced contraction of isolated guinea pig tracheal strip. Format: functional. To be noted: Trachea.
For test [2], the species on record is Oryctolagus cuniculus. The test can be described thus: Compound was tested for platelet aggregation in citreated rabbit platelet-rich plasma induced by arachidonic acid at 200 uM. Format: functional.
Test [3] is filed under the species Oryctolagus cuniculus. As to the kind of experiment: In vitro of platelet aggregation of citreated rabbit platelet-rich plasma, induced by arachidonic acid at 200 uM. It is filed as functional.
Test [4] is filed under the species Oryctolagus cuniculus. As to the kind of experiment: In vitro of platelet aggregation of citreated rabbit platelet-rich plasma, induced by collagen at 5 µg/mL; value expressed as slope.
Test [5] relates to Rattus norvegicus. The test can be described thus: Antiinflammatory effect at a dose of 100 umol/kg administered orally in the carrageenan-induced rat pleurisy assay (10e6 Cells/cavity). It is filed as functional.
Test [6] has as its system Rattus norvegicus. The test can be described thus: Exudate volume was determined after administration at a dose of 100 umol/kg. Format: functional.
The test system of test [7] is Rattus norvegicus. The test can be described thus: Percent inhibition of cellular migration by the compound at a dose of 100 umol/kg was evaluated in the carrageenan-induced rat pleurisy assay. Format: functional.
Test [8] deals with Rattus norvegicus. The test can be described thus: Exudate volume was determined after administration at a dose of 100 umol/kg in the carrageenan-induced rat pleurisy assay. It is filed as functional.

What is called inhibition in vivo is the relative decrease from the control value, in per cent. A high value points to a strong effect. What is called IC50 is the concentration at which inhibition is half-maximal. A high value points to lower potency. For the compound `Cc1nn(-c2ccccc2)c2ncc3c(OC(=O)CCCC(=O)O)c(-c4ccc(Cl)cc4)sc3c12`, in the test with Rattus norvegicus [1], the inhibition in vivo at 100 µmol/kg is 36.2%. Further, the concentration for half-maximal inhibition (IC50) is 43.7 µM in the test filed under Cavia porcellus and 0.14 µM in the test listed under Oryctolagus cuniculus [2]. Further, the Aggregation in the test listed under Oryctolagus cuniculus [3] was 0%; in the test filed under Oryctolagus cuniculus [4], 0. Also, in the test with Rattus norvegicus [5], the Cell number stood at 19600000. Further, in the test on Rattus norvegicus [6], the Exudate volume stood at 3.05 mL.

`Cc1nn(-c2ccccc2)c2ncc3c(OCCCCC(=O)O)c(-c4ccc(Cl)cc4)sc3c12` showed an inhibition in vivo at 100 µmol/kg with Rattus norvegicus [1] of 30%. Also, the results for the Aggregation in the test listed under Oryctolagus cuniculus [3] and in the test listed under Oryctolagus cuniculus [4] were 58.9% and 7.5, respectively. This compound came in with a Cell number with Rattus norvegicus [5] of 21.5. In addition, the Exudate volume with Rattus norvegicus [6] was determined as 3.22 mL.

For `Cc1nn(-c2ccccc2)c2ncc3c(OCCCCCC(=O)O)c(-c4ccc(Cl)cc4)sc3c12`, the inhibition in vivo at 100 µmol/kg with Rattus norvegicus [1] was found to be 42%. For the same compound, the Aggregation in the test listed under Oryctolagus cuniculus [3] is on record as 56.6%; in the test listed under Oryctolagus cuniculus [4], 5.8. This compound also registered a Cell number with Rattus norvegicus [5] of 17800000. For the same compound, the Exudate volume in the test on Rattus norvegicus [6] amounted to 3.16 mL.

Regarding `Cc1nn(-c2ccccc2)c2ncc3c(OCc4ccc(CC(=O)O)cc4)c(-c4ccc(Cl)cc4)sc3c12`, the inhibition in vivo at 100 µmol/kg in the test on Rattus norvegicus [1] amounted to 28.7%. The figures for the Aggregation in the test filed under Oryctolagus cuniculus [3] and in the test filed under Oryctolagus cuniculus [4] were 60.5% and 4.7, respectively. The Cell number in the test with Rattus norvegicus [5] worked out at 21900000. The same compound showed an Exudate volume with Rattus norvegicus [6] of 3.1 mL.

Take `COc1ccc2c(c1)c(CC(=O)O)c(C)n2C(=O)c1ccc(Cl)cc1` [INDOMETHACIN]: the Aggregation in the test listed under Oryctolagus cuniculus [3] was found to be 0%; in the test filed under Oryctolagus cuniculus [4], 0.4. The inhibition in vivo at 100 µmol/kg in the test with Rattus norvegicus [7] turned out to be 24.1%. Further, the Cell number in the test with Rattus norvegicus [5] was 23.3. This compound also showed an Exudate volume with Rattus norvegicus [8] of 3.21 mL.
